Assay results published in patent US11795177B2, “Substituted quinoline analogs as aldehyde dehydrogenase 1A1 (ALDH1A1) inhibitors” (THE UNITED STATES OF AMERICA, AS REPRESENTED BY THE …, priority 2017, dated 2023).
Structures can show the parent of a compound that is named as a salt.

Legend:
[1] = molecular target: T1, ALDH1A1 enzyme (Homo sapiens, UniProt P00352); assay: ALDH1A1 enzymatic assay (in vitro); assay type: biochemical; details: ALDH1A1 enzyme 20 nM, NAD+ 1 mM, propionaldehyde 80 μM; read-out: ALDH1A1 IC50
T1 sequence (P00352 1-501): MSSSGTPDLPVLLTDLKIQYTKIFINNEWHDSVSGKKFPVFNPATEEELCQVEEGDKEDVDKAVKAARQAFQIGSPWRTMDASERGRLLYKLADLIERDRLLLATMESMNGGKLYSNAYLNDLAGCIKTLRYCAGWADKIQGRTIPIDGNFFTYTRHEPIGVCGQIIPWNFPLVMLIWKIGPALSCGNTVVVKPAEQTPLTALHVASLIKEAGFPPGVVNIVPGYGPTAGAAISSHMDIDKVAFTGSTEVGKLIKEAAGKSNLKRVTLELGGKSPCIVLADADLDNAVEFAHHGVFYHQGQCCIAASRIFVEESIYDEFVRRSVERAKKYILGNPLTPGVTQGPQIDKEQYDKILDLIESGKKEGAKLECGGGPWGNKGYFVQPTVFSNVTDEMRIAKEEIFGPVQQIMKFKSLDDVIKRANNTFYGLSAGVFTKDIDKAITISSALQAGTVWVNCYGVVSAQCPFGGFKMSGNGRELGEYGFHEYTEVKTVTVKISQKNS
In short: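 ALDH1A1 (20 nM final) in 100 mM HEPES pH 7.5, 0.01% Tween 20 was preincubated 15 min at RT with compound (968 pM–57.2 μM final), then started with 1 mM NAD+ and 80 μM propionaldehyde. NADH fluorescence (ex 340/em 450 nm) followed kinetically for 10 min; change normalized to no-inhibitor and no-enzyme controls for percent inhibition and curve fitting.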

[2] = tested on: MIA PaCa-2 cells; assay: MIA PaCa2 cell-based assay (1,536-well high-content imaging ALDEFLUOR assay); parameters: species or system human; details: Homo sapiens, 0.5 h, ALDEFLUOR BAAA substrate 500 nM, 30 minutes
In short: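 High-content ALDEFLUOR imaging readout: BAA-retaining cells in FITC channel scored against Hoechst-counted nuclei. Before imaging, MIA PaCa-2 cells seeded at 1,000 per well received final 500 nM BAAA and 0.5 nM Hoechst with compounds in 16-point series (1.4 nM to 47.8 μM), 30 min, 37° C.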

Compound | IC50 [1] | IC50 [2]
CCS(=O)(=O)N1CCN(C(=O)c2cnc3c(cnn3C)c2N2CCC(C)(C#N)CC2)CC1 [Example 207, 1-(5-(4-(ethylsulfonyl)piperazine-1-carbonyl)-1-methyl-1H-pyrazolo[3,4-b]pyridin-4-yl)-4-methylpiperidine-4-carbonitrile] | < 500 nM | 1000 to 10000 nM
N#CC1(c2ccc(-c3c(C(=O)N4CC5(CC(O)C5)C4)cnc4ccc(F)cc34)cc2)CC1 [Cpd. 335, 1-(4-(6-fluoro-3-(6-hydroxy-2-azaspiro[3.3]heptane-2-carbonyl)quinolin-4-yl)phenyl)cyclopropane-1-carbonitrile] | < 500 nM | 1000 to 10000 nM
N#CC1(c2ccccc2)CCN(c2c(C(=O)Nc3cnn(CC(=O)NC4CC4)c3)cnc3ccc(F)cc23)CC1 [Cpd. 347, 4-(4-cyano-4-phenylpiperidin-1-yl)-N-(1-(2-(cyclopropylamino)-2-oxoethyl)-1H-pyrazol-4-yl)-6-fluoroquinoline-3-carboxamide] | < 500 nM | < 500 nM
N#CC1(c2ccc(-c3c(C(=O)N4CCC(O)CC4)cnc4ccc(F)cc34)cc2)CC1 [Cpd. 337, 1-(4-(6-fluoro-3-(4-hydroxypiperidine-1-carbonyl)quinolin-4-yl)phenyl)cyclopropane-1-carbonitrile] | < 500 nM | 1000 to 10000 nM
CN(C)C(=O)N1CCN(C(=O)c2cnc3ccc(F)cc3c2N2CCC3(CC2)OCCO3)CC1 [Example 179, 4-(6-fluoro-4-(1,4-dioxa-8-azaspiro[4.5]decan-8-yl)quinoline-3-carbonyl)-N,N-dimethylpiperazine-1-carboxamide] | < 500 nM | 500 to 1000 nM
CNC(=O)C1CCN(C(=O)c2cnc3ccc(F)cc3c2-c2ccc(C3(C#N)CC3)cc2)CC1 [Cpd. 333, 1-(4-(4-(1-cyanocyclopropyl)phenyl)-6-fluoroquinoline-3-carbonyl)-N-methylpiperidine-4-carboxamide] | < 500 nM | < 500 nM
CC1(C#N)CCN(c2c(C(=O)N3CCN(C(=O)C4CC4)CC3)cnc3[nH]ncc23)CC1 [Example 237, 1-(5-(4-(cyclopropanecarbonyl)piperazine-1-carbonyl)-1H-pyrazolo[3,4-b]pyridin-4-yl)-4-methylpiperidine-4-carbonitrile] | 1000 to 10000 nM | > 10000 nM
CN(C)S(=O)(=O)N1CCN(C(=O)c2cnc3ccc(F)cc3c2N2CCC3(CC2)OCCO3)CC1 [Example 152, 4-(6-fluoro-4-(1,4-dioxa-8-azaspiro[4.5]decan-8-yl)quinoline-3-carbonyl)-N,N-dimethylpiperazine-1-sulfonamide] | < 500 nM | 500 to 1000 nM
CN(C)S(=O)(=O)N1CCN(C(=O)c2cnc3c(F)cc(F)cc3c2N2CCC(C)(C#N)CC2)CC1 [Example 167, 4-(4-(4-cyano-4-methylpiperidin-1-yl)-6,8-difluoroquinoline-3-carbonyl)-N,N-dimethylpiperazine-1-sulfonamide] | < 500 nM | < 500 nM
CC1(C#N)CCN(c2c(C(=O)N3CCN(C(=O)C4CC4)CC3)cnc3cc(F)c(F)cc23)CC1 [Example 126, 1-(3-(4-(cyclopropanecarbonyl)piperazine-1-carbonyl)-6,7-difluoroquinolin-4-yl)-4-methylpiperidine-4-carbonitrile] | < 500 nM | 1000 to 10000 nM
COc1ccc2ncc(C(=O)N3CCC(C(F)(F)F)CC3)c(N3CCC4(CC3)OCCO4)c2c1 [Example 12, (6-methoxy-4-(1,4-dioxa-8-azaspiro[4.5]decan-8-yl)quinolin-3-yl)(4-(trifluoromethyl)piperidin-1-yl)methanone, TFA] | < 500 nM | 1000 to 10000 nM
CCOC(=O)N1CCN(C(=O)c2cnc3cc(OC)ccc3c2N2CCC(C)(C#N)CC2)CC1 [Example 108, Ethyl 4-(4-(4-cyano-4-methylpiperidin-1-yl)-7-methoxyquinoline-3-carbonyl)piperazine-1-carboxylate] | < 500 nM | 1000 to 10000 nM
